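Compound exposure: 48 hours, 5 concentrations, 96-well plates. At the TGI there is no net growth.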
What was measured:
Test in all cases: NCI tumour cell line growth inhibition, 48 h
[1] = system: LOX IMVI melanoma
[2] = system: TK-10 renal
[3] = system: A498 renal
[4] = system: SR leukemia
[5] = system: MALME-3M melanoma
[6] = system: HCT-15 colon
[7] = system: NCI-H460 lung
[8] = system: OVCAR-8 ovarian
[9] = system: HT29 colon
[10] = system: ACHN renal
[11] = system: DMS 114 small cell lung
[12] = system: U251 CNS
[13] = system: HOP-18 NSCLC
[14] = system: XF 498 CNS
[15] = system: NCI-H226 lung
[16] = system: HOP-92 NSCLC
[17] = system: OVCAR-5 ovarian
[18] = system: IGROV1 ovarian
[19] = system: SW-620 colon
[20] = system: SNB-78 CNS
[21] = system: RPMI-8226 leukemia
[22] = system: HOP-62 NSCLC
[23] = system: MOLT-4 leukemia
[24] = system: SK-MEL-2 melanoma
[25] = system: HCC-2998 colon
[26] = system: HCT-116 colon
[27] = system: OVCAR-4 ovarian
[28] = system: SF-295 CNS
[29] = system: CAKI-1 renal
[30] = system: SK-OV-3 ovarian
[31] = system: HL-60(TB) leukemia
[32] = system: SNB-75 CNS
[33] = system: M14 melanoma
[34] = system: UACC-62 melanoma
[35] = system: UACC-257 melanoma
[36] = system: KM20L2 colon
[37] = system: RXF 393 renal
[38] = system: DLD-1 colon
[39] = system: NCI-H23 lung
[40] = system: UO-31 renal
[41] = system: A549 NSCLC
[42] = system: RXF-631 renal
[43] = system: COLO 205 colon
[44] = system: DMS 273 small cell lung
[45] = system: SK-MEL-5 melanoma
[46] = system: SF-539 CNS
[47] = system: SF-268 CNS
[48] = system: M19-MEL melanoma
[49] = system: K-562 leukemia
[50] = system: OVCAR-3 ovarian
[51] = system: EKVX NSCLC
[52] = system: LXFL 529 NSCLC
[53] = system: 786-0 renal
[54] = system: KM12 colon
[55] = system: SK-MEL-28 melanoma
[56] = system: CCRF-CEM leukemia
[57] = system: SN12C renal
[58] = system: SNB-19 CNS
[59] = system: NCI-H522 lung

Measured: TGI

C/C(CCc1ccccc1)=N\NC(N)=S
not listed: [58] | [59]
> 100 µM: all other assays above

Cc1cccc(-n2c(=S)[nH]c3c(sc(=O)n3-c3ccccc3C)c2=O)c1
not listed: [1] | [2] | [14]
> 100 µM: all other assays above
